# In publication PMC9545147, “Impact of Sulfur Fumigation on Ginger: Chemical and Biological Evidence” (Journal of Agricultural and Food Chemistry, 2022):
# Columns and labels:
# [1] = Pharmacokinetics in rats after single oral (intragastric) administration; assay type: in vivo; conditions: male, Sprague-Dawley, rat, 10 mg/kg, plasma, mean ± SD (n = 6); for CL/F: read-out: Cl/F_obs (apparent total body clearance) (converted); for MRT: read-out: MRT (mean residence time); for half-life: read-out: T1/2 (terminal half-life) (converted); for Vd/F: read-out: Vz/F_obs (apparent volume of distribution)
# Procedure: A multiple reaction monitoring (MRM) mass acquisition method using a triple quadrupole (QQQ) mass spectrometer was used to determine compound I and 6-shogaol in rat plasma. Chromatographic separation was performed on an Agilent 1290 UPLC equipped with a binary pump with degasser (G4220A), a thermostatic column compartment (G1316C), and an autosampler (G4226A). […] The mobile phase used for the UPLC consisted of 0.1% formic acid in water (v/v) (A) and 0.1% formic acid in acetonitrile (v/v) (B). The elution gradient procedure started at 15% B, then 0–5 min, 15–75% B; 5–6 min, 75–100% B; 6–9 min, 100% B; 9–12 min, 15% B.
# MS data were acquired with an Agilent 6460 QQQ mass spectrometer (G6460) equipped with a JetStream electrospray ion (ESI) source. The MRM parameters were as follows: for 6-gingesulfonic acid, negative mode; fragmentor at 120 V; ion pair m/z 357.1 → 80.9 (15 V), 357.1 → 275.1 (15 V). For 6-shogaol, positive mode; fragmentor at 80 V; ion pair m/z 277.2 → 137.0 (11 V), 277.2 → 259.1 (7 V).
# The pharmacokinetic parameters were calculated using the PKSolver 2.0 add-in with a non-compartment model.[11],[12] The time to peak drug concentration (Tmax) means the time when plasma concentrations reached a maximum value (Cmax). The area under the concentration versus time curve from zero to the last sampling time (AUC0–t) and to infinity (AUC0–∞), apparent volume of distribution (Vz/F_obs), terminal half-life (T1/2), mean residence time (MRT), and apparent total body clearance (Cl/F_obs), were calculated under the PKSolver add-in. All the results were presented as the mean ± standard deviation (SD) of six independent experiments.
# [2] = MTT cell viability assay, HCT-116; assay type: cell-based, human; conditions: human, HCT-116 colon cancer cells; for viability at 24 h, 100 µM: HCT-116, 100 μM
# Procedure: (§1) HCT-116 colon cancer cells (Procell, Wuhan, China) were cultured in McCoy’s 5A medium (Gibco; Thermo Fisher Scientific Inc., MA, USA), Hep-G2 hepatocellular carcinoma cells (Procell, Wuhan, China) in Eagle’s minimum essential medium (EMEM, Gibco; Thermo Fisher Scientific Inc., MA, USA), and HCC-1806 breast cancer cells (Manassas, VA, USA) in RPMI-1640 medium (Gibco; Thermo Fisher Scientific Inc., MA, USA). All the mediums were supplemented with 10% fetal bovine serum and 1% penicillin–streptomycin (Thermo Fisher Scientific Inc., MA, USA) and cultured at 37 °C in a humidified incubator with 5% CO2.
# (§2) Cell viability was determined by a 3-(4,5-dimethylthiazol-2-yl)-2,5-diphenyltetrazolium bromide (MTT) colorimetric assay. Each cell strain (6000 cells/well) was plated in 96-well microtiter plates and allowed to attach for 24 h at 37 °C and 5% CO2. Compound I or 6-shogaol (in dimethyl sulfoxide, DMSO) was added to the cell culture medium to desired final concentrations of 10, 40, and 100 μM. Final DMSO concentrations for control and treatments were 0.1%. There were six replicates of each condition. After the cells were cultured for 24 h, the medium was removed, and the cells were treated with 5 mg/mL MTT in fresh media. After incubation for 4 h at 37 °C, the medium containing MTT was removed, 100 μL of DMSO was added to the wells, and the plates were shaken gently for 30 min at room temperature. Absorbance values were derived from the plate reading at 490 nm on microplate readers (BioTek, Agilent).
# [3] = MTT cell viability assay, Hep-G2; assay type: cell-based; conditions: human, Hep-G2 hepatocellular carcinoma cells, Hep-G2, 100 μM
# Procedure: as §1
# as §2, with “After incubation for 4 h at 37 °C, the medium containing MTT was removed, 100 μL of DMSO was added to the wells, and the plates were shaken gently for 30 min at room temperature.” left out
# [4] = MTT cell viability assay, HCC-1806; assay type: cell-based; conditions: human, HCC-1806 breast cancer cells, HCC-1806, 100 μM
# Procedure: as §1
# as §2, with “After incubation for 4 h at 37 °C, the medium containing MTT was removed, 100 μL of DMSO was added to the wells, and the plates were shaken gently for 30 min at room temperature.” left out
# [5] = Stability evaluation of samples in rat plasma (UPLC–QQQ–MS/MS method validation); assay type: in vitro ADME; conditions: n=3; for Stability (Mean±SD), Postpreparative: rat plasma samples in autosampler for 8 h; for Stability (Mean±SD), Short Term / Stability (Mean±SD), Freeze and Thaw / Stability (Mean±SD), Long Term: rat plasma; for Stability (Mean±SD), Short Term: room temperature for 4 h; for Stability (Mean±SD), Freeze and Thaw: −20 °C for 24 h and thawed at room temperature, repeated three times; for Stability (Mean±SD), Long Term: −20 °C for 30 days
# Procedure: The established UPLC–QQQ–MS/MS methods were validated according to the guidelines of the US Food and Drug Administration.[10] Linearity, limit of detection (LOD), lower limit of quantification (LLOQ), interday and intraday accuracy and precision, extraction recovery, and stability were measured. The calibration curve was replicated three times on the same day (intraday) and over 3 days (interday) to evaluate accuracy and precision. The correlation coefficient (r^2) of all calibration curves was at least 0.995, and the bias and coefficient of variation were kept within ±15%. Matrix effect and recovery evaluation: the matrix effect was given as the ratio of mean peak area for the post-extraction spiked samples (set 2, in plasma) to that of the standard solution samples (set 1, in MeOH). Recovery was quantified as the ratio of mean peak area of the pre-extraction spiked samples (set 3, standard with homogenate plasma) to that of the post-extraction spiked samples (set 2, in plasma). Stability: (1) freeze and thaw: samples were stored at −20 °C for 24 h and thawed at room temperature and repeated three times; (2) short term: samples were maintained at room temperature for 4 h; (3) long term: samples were kept at −20 °C for 30 days; (4) postpreparative: samples were maintained in an autosampler for 8 h. The stability of all the samples was limited to within ±15%, except for the LLOQ within ±20%.
# [6] = Metabolite profiling in rat plasma, urine and feces by UPLC–QTOF–MS/MS; conditions: rats; for biological samples in which metabolite was detected, 6-Shogaol treated: 10 mg/kg oral 6-shogaol, feces/urine/plasma
# Procedure: A total of 12 adult male Sprague–Dawley rats (220–240 g) were purchased from the Chinese University of Hong Kong. The animals were kept in standard living conditions (room temperature 22 ± 1 °C, 12 h light/dark normal cycle, and constant humidity) at the animal laboratory of the School of Chinese Medicine, Hong Kong Baptist University with free access to food and water. All experimental protocols were approved by the Environmental Health and Safety Committee of Hong Kong Baptist University, Hong Kong (03/2017), and the procedures were in accordance with the guidelines of the Animal Care Ethics Committee of Hong Kong Baptist University and the Department of Health, Hong Kong Special Administrative Region. Before the experiment, the rats were kept for one week to acclimate to the new environment. The rats were randomly divided into two groups (n = 6) and fasted with water freely available. On the day of the experiment, by intragastric administration, one group received compound I and the other group received 6-shogaol. Both compounds were dissolved in 2% Tween 80 with an administration volume of less than 0.5 mL at a dose of 10 mg/kg. Then, rats were housed singly during the blood collection period (a total of 72 h). For each sample, 300–500 μL blood was collected from the eye canthus of each rat into tubes containing 1.5 mL EDTA. Samples were drawn at 0.0, 0.08, 0.25, 0.50, 0.75, 1.0, 2.0, 4.0, 6.0, 12, 24, 36, 48, 60, and 72 h. The blood samples were centrifuged at 4000 rpm for 15 min at 4 °C to obtain plasma. Urine and feces were collected every 1–2 h throughout the experiments. The blood, urine, and feces were collected before the intragastric administration as a blank sample. The rats were sacrificed by cervical spondylolisthesis after the experiment.
# For metabolite identification and relative quantification, homogeneous biospecimen samples were combined during periods from 0 h to the time when plasmatic concentrations reached a maximum value (Tmax) after intragastric administration. 50 μL of each plasma or urine sample was added to 1.2 mL of MeOH to precipitate proteins. […]
# [7] = tested on: HCT-116 colon cancer cells; assay: MTT cell viability assay, HCT-116; assay type: cell-based, human; conditions: HCT-116, 10 μM, 24 h
# Procedure: as §1, §2
SMILES,AUC(0-inf) [1] [ng·h/mL],AUC(0-t) [1] [ng·h/mL],Cmax [1] [ng/mL],Tmax [1] [h],CL/F [1] [mL/min/kg],MRT [1] [h],half-life [1] [h],Vd/F [1] [L/kg],"viability at 24 h, 10 µM ([2]; HCT-116, 10 μM) [%]","viability at 24 h, 100 µM [2] [%]","viability at 24 h, 100 µM [3] [%]","viability at 24 h, 100 µM [4] [%]","Stability (Mean±SD), Postpreparative [5] [%]","Stability (Mean±SD), Short Term [5] [%]","Stability (Mean±SD), Freeze and Thaw [5] [%]","Stability (Mean±SD), Long Term [5] [%]",metabolite concentration in urine and feces samples of 6-gingesulfonic acid group versus 6-shogaol group ([6]; 10 mg/kg oral),cell viability [7],"biological samples in which metabolite was detected, 6-Shogaol treated [6]"
"CCCCC/C=C/C(=O)CCc1ccc(O)c(OC)c1 [6-shogaol, reference compound]",121 ± 36.3,76.8 ± 26.9,155 ± 39,0.14 ± 0.09,1470,1.02 ± 0.82,0.64 ± 0.53,71.9 ± 33,58.6,4.17,2.73,7.84,95.87±8.69,95.88±8.18,96.06±9.07,101.23±12.95,–,–,–
"CCCCCC(CC(=O)CCc1ccc(O)c(OC)c1)SCC(NC(=O)CCC(N)C(=O)O)C(=O)NCC(=O)O (centres unmarked) [M4, 5-glutathionyl-6-shogaol]",–,–,–,–,–,–,–,–,–,–,–,–,–,–,–,–,lower concentrations,–,–
CCCCCC(CC(=O)CCc1ccc(O)c(OC)c1)S(=O)(=O)O (centres unmarked) [6-gingesulfonic acid],9580 ± 2070,8710 ± 1930,520 ± 138,5.33 ± 1.63,18,30.4 ± 1.83,20.8 ± 5.23,32.4 ± 9.94,–,84.9,84.2,64.6,98.19±5.06,99.26±1.58,92.6±4.31,92.26±4.28,–,no significant change,–
"CCCCCC=CC(O)CCc1ccc(O)c(OC)c1 (centres unmarked) [M1, 1-(4′-hydroxy-3′-methoxyphenyl)-4-decen-3-ol]",–,–,–,–,–,–,–,–,–,–,–,–,–,–,–,–,–,–,FUP
"CCCCC/C=C/C(=O)CCc1ccc(OC2OC(C(=O)O)C(O)C(O)C2O)c(OC)c1 (stereo not drawn) [M3, s-6-shogaol-4′-O-β-glucuronide]",–,–,–,–,–,–,–,–,–,–,–,–,–,–,–,–,–,–,FUP
